Where a name gives a salt, the structure may show the parent alone.
test: Inhibition of [3H]pentazocine binding to Sigma receptor type 1 in guinea pig brain membrane without cerebellum

Compound	Ki [nM]
C(/C=C/c1ccc2c(c1)OCO2)=C\CN1CCCCC1 [1-(5-Benzo[1,3]dioxol-5-yl-penta-2,4-dienyl)-piperidine]	0.86
CC1CCN([C@@H](C)COc2ccc(Cl)cc2)CC1 [1-[2-(4-Chloro-phenoxy)-1-methyl-ethyl]-4-methyl-piperidine; hydrochloride]	0.34
CC1CCN([C@H](C)COc2ccc(Cl)cc2)CC1 [1-[2-(4-Chloro-phenoxy)-1-methyl-ethyl]-4-methyl-piperidine; hydrochloride]	1.18
CC1CCN(C[C@@H](C)COc2ccc(Cl)cc2)CC1 [1-[3-(4-Chloro-phenoxy)-2-methyl-propyl]-4-methyl-piperidine; hydrochloride]	1.7
CC1CCN(C[C@H](C)COc2ccc(Cl)cc2)CC1 [1-[3-(4-Chloro-phenoxy)-2-methyl-propyl]-4-methyl-piperidine; hydrochloride]	1.09

From BindingDB's records for doi:10.1021/jm021014d (University of Bari Aldo Moro, 2003)
